Several values for one entry are separate records, joined by “and”; a condition that tells them apart may be missing. Equal entries are not always repeated. Toxic doses and inconclusive results are not listed.
Tested on: L1210 leukemia ip in BDF1 mice, survival T/C
Test: NCI In Vivo Anticancer Drug Screen. Data for tumor model L1210 Leukemia (intraperitoneal) in B6D2F1 (BDF1) mice
Conditions: endpoint: mean survival time, higher = longer survival
Procedure, shortened: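 Mice bearing the transplanted tumor received compound or vehicle. Survival of the treated group was divided by that of the vehicle-treated control group to give the ratio.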

[1] = dose: 100.0 mg/kg/injection, schedule: Q04DX002 (ip), vehicle: Klucel (hydroxypropylcellulose) (HPC)
[2] = dose: 200.0 mg/kg/injection, schedule: Q04DX002 (ip), vehicle: Klucel (hydroxypropylcellulose) (HPC)
[3] = dose: 400.0 mg/kg/injection, schedule: Q04DX002 (ip), vehicle: Klucel (hydroxypropylcellulose) (HPC)
[4] = dose: 100.0 mg/kg/injection, schedule: Q04DX003 (ip), vehicle: saline with Tween-80
[5] = dose: 50.0 mg/kg/injection, schedule: Q01DX001 (ip), vehicle: saline
[6] = dose: 100.0 mg/kg/injection, schedule: Q01DX001 (ip), vehicle: saline
[7] = dose: 200.0 mg/kg/injection, schedule: Q01DX001 (ip), vehicle: saline
[8] = dose: 400.0 mg/kg/injection, schedule: Q01DX001 (ip), vehicle: saline
[9] = dose: 400.0 mg/kg/injection, schedule: Q04DX003 (ip), vehicle: saline with Tween-80

Cc1cc(O)c2c(c1O)C(=O)C13C(=C2O)C(=O)C2C(O)C1C1C(O)C3C(=O)C3=C(O)c4c(O)cc(C)c(O)c4C(=O)C321 (stereo not drawn)
T/C (dose: 12.5 mg/kg/injection, schedule: Q04DX003 (ip), vehicle: saline with Tween-80): 93 % of control
T/C (dose: 25.0 mg/kg/injection, schedule: Q04DX003 (ip), vehicle: saline with Tween-80): 106 % of control

Cc1ccc(C)c(NC(=O)c2ccc(C(=O)O)cc2C(=O)O)c1
T/C (dose: 100.0 mg/kg/injection, schedule: Q01DX009 (ip), vehicle: Klucel (hydroxypropylcellulose) (HPC)): 95 % of control
T/C [1]: 98 % of control
T/C (dose: 200.0 mg/kg/injection, schedule: Q01DX009 (ip), vehicle: Klucel (hydroxypropylcellulose) (HPC)): 100 % of control
T/C [2]: 98 % of control
T/C (dose: 400.0 mg/kg/injection, schedule: Q01DX009 (ip), vehicle: Klucel (hydroxypropylcellulose) (HPC)): 97 % of control
T/C [3]: 95 % of control

Nc1c(N=Nc2cccc([N+](=O)[O-])c2)c(S(=O)(=O)O)cc2cc(S(=O)(=O)O)c(N=Nc3ccc(-c4ccc(N=Nc5cc(S(=O)(=O)O)c6ccccc6c5O)cc4)cc3)c(O)c12
T/C (dose: 50.0 mg/kg/injection, schedule: Q01DX010 (ip), vehicle: saline): 94 % of control
T/C (dose: 100.0 mg/kg/injection, schedule: Q01DX010 (ip), vehicle: saline): 100 % of control
T/C (dose: 200.0 mg/kg/injection, schedule: Q01DX010 (ip), vehicle: saline): 92 % of control

COc1cc(NS(C)(=O)=O)ccc1Nc1c2ccc(Cl)cc2nc2c(OC)cccc12
T/C (dose: 6.25 mg/kg/injection, schedule: Q01DX009 (ip), vehicle: water): 155 % of control
T/C (dose: 12.5 mg/kg/injection, schedule: Q01DX009 (ip), vehicle: water): 98 % of control
T/C (dose: 13.0 mg/kg/injection, schedule: Q04DX003 (ip), vehicle: saline with Tween-80): 155 % of control
T/C (dose: 20.0 mg/kg/injection, schedule: Q04DX003 (ip), vehicle: saline with Tween-80): 247 % of control
T/C (dose: 29.0 mg/kg/injection, schedule: Q04DX003 (ip), vehicle: saline with Tween-80): 253 % of control
T/C (dose: 30.0 mg/kg/injection, schedule: Q04DX003 (ip), vehicle: saline with Tween-80): 296 % of control
T/C (dose: 44.0 mg/kg/injection, schedule: Q04DX003 (ip), vehicle: saline with Tween-80): 260 % of control
T/C (dose: 66.0 mg/kg/injection, schedule: Q04DX003 (ip), vehicle: saline with Tween-80): 153 % of control
T/C [4]: 89 % of control

CC12NC(=O)NC(=O)N1CCS2 (stereo not drawn)
T/C [5]: 100 % of control
T/C [6]: 106 % of control
T/C [7]: 102 % of control
T/C [8]: 100 % of control

C/C=C1/C(=O)Oc2ccccc21
T/C (dose: 50.0 mg/kg/injection, schedule: Q01DX009 (ip), vehicle: saline): 97 % of control
T/C (dose: 100.0 mg/kg/injection, schedule: Q01DX009 (ip), vehicle: saline): 102 % of control
T/C (dose: 200.0 mg/kg/injection, schedule: Q01DX009 (ip), vehicle: saline): 94 % of control

O=C(NC(=O)c1cccc(Br)c1)Nc1ccccc1
T/C (dose: 264.0 mg/kg/injection, schedule: Q01DX001 (ip), vehicle: carboxymethylcellulose (CMC)): 92 % of control
T/C (dose: 400.0 mg/kg/injection, schedule: Q01DX001 (ip), vehicle: carboxymethylcellulose (CMC)): 96 % of control
T/C (dose: 600.0 mg/kg/injection, schedule: Q01DX001 (ip), vehicle: carboxymethylcellulose (CMC)): 90 % of control

Cc1cccc(C(C#N)c2ccc(N)cc2)c1 (stereo not drawn)
T/C [5]: 101 % of control
T/C [6]: 101 % of control
T/C [7]: 101 % of control

CC(C(N)=O)N1C(=O)C2C3C=CC(C3)C2C1=O (stereo not drawn)
T/C [4]: 109 % of control
T/C [9]: 97 % of control

CC(C)CCCC(=O)CCCCCCC(=O)CCN(O)C(=O)C(N)CO (stereo not drawn)
T/C (dose: 12.5 mg/kg/injection, schedule: Q01DX009 (ip), vehicle: acetone): 93 % of control
T/C (dose: 25.0 mg/kg/injection, schedule: Q01DX009 (ip), vehicle: acetone): 102 % of control
T/C (dose: 25.0 mg/kg/injection, schedule: Q04DX003 (ip), vehicle: acetone): 95 % of control
T/C (dose: 50.0 mg/kg/injection, schedule: Q04DX003 (ip), vehicle: acetone): 103 % of control
T/C (dose: 100.0 mg/kg/injection, schedule: Q01DX001 (ip), vehicle: acetone): 97 % of control

CC1([N+](=O)[O-])COP(=O)(NC2CCCC2)OC1 (stereo not drawn)
T/C [5]: 106 % of control
T/C [6]: 108 % of control
T/C [7]: 102 % of control

c1ccc(-c2c3ccccc3c(-c3ccccc3)c3c(-c4ccccc4)c4ccccc4c(-c4ccccc4)c23)cc1
T/C [1]: 95 % of control
T/C [2]: 98 % of control
T/C [3]: 109 % of control

O=C(NCCCl)Nc1cccc(C(F)(F)F)c1
T/C [4]: 104 % of control
T/C (dose: 200.0 mg/kg/injection, schedule: Q04DX003 (ip), vehicle: saline with Tween-80): 107 % of control
T/C [9]: 113 % of control

Cc1c(F)cccc1C(=O)O
T/C (dose: 100.0 mg/kg/injection, schedule: Q01DX009 (ip), vehicle: carboxymethylcellulose (CMC)): 101 % of control and 102 % of control
T/C (dose: 100.0 mg/kg/injection, schedule: Q04DX002 (ip), vehicle: carboxymethylcellulose (CMC)): 100 % of control
T/C (dose: 100.0 mg/kg/injection, schedule: Q04DX003 (ip), vehicle: carboxymethylcellulose (CMC)): 103 % of control
T/C (dose: 200.0 mg/kg/injection, schedule: Q01DX009 (ip), vehicle: carboxymethylcellulose (CMC)): 102 % of control and 87 % of control
T/C (dose: 200.0 mg/kg/injection, schedule: Q04DX002 (ip), vehicle: carboxymethylcellulose (CMC)): 93 % of control and 105 % of control
T/C (dose: 200.0 mg/kg/injection, schedule: Q04DX003 (ip), vehicle: carboxymethylcellulose (CMC)): 103 % of control
T/C (dose: 400.0 mg/kg/injection, schedule: Q01DX009 (ip), vehicle: carboxymethylcellulose (CMC)): 97 % of control and 90 % of control
T/C (dose: 400.0 mg/kg/injection, schedule: Q04DX002 (ip), vehicle: carboxymethylcellulose (CMC)): 93 % of control and 102 % of control
T/C (dose: 400.0 mg/kg/injection, schedule: Q04DX003 (ip), vehicle: carboxymethylcellulose (CMC)): 101 % of control

NC(Cn1cc(N(CCCl)CCCl)c(=O)[nH]c1=O)C(=O)O (stereo not drawn)
T/C (dose: 2.5 mg/kg/injection, schedule: Q01DX009 (ip), vehicle: water): 114 % of control
T/C (dose: 4.0 mg/kg/injection, schedule: Q01DX009 (ip), vehicle: saline): 108 % of control
T/C (dose: 5.0 mg/kg/injection, schedule: Q01DX009 (ip), vehicle: water): 122 % of control
T/C (dose: 6.0 mg/kg/injection, schedule: Q01DX009 (ip), vehicle: saline): 113 % of control
T/C (dose: 8.0 mg/kg/injection, schedule: Q01DX009 (ip), vehicle: saline): 103 % of control
T/C (dose: 9.0 mg/kg/injection, schedule: Q01DX009 (ip), vehicle: saline): 111 % of control
T/C (dose: 14.0 mg/kg/injection, schedule: Q01DX009 (ip), vehicle: saline): 120 % of control
T/C (dose: 16.0 mg/kg/injection, schedule: Q01DX009 (ip), vehicle: saline): 118 % of control
T/C (dose: 19.0 mg/kg/injection, schedule: Q01DX001 (ip), vehicle: saline): 97 % of control
T/C (dose: 20.0 mg/kg/injection, schedule: Q01DX001 (ip), vehicle: saline): 121 % of control
T/C (dose: 30.0 mg/kg/injection, schedule: Q01DX001 (ip), vehicle: saline): 115 % of control
T/C (dose: 33.0 mg/kg/injection, schedule: Q01DX009 (ip), vehicle: saline): 98 % of control
T/C (dose: 37.5 mg/kg/injection, schedule: Q01DX001 (ip), vehicle: saline): 114 % of control
T/C (dose: 45.0 mg/kg/injection, schedule: Q01DX009 (ip), vehicle: saline): 101 % of control
T/C (dose: 75.0 mg/kg/injection, schedule: Q01DX009 (ip), vehicle: saline): 103 % of control

Cc1cc(C)nc(N(C)CC(=O)O)n1
T/C (dose: 50.0 mg/kg/injection, schedule: Q04DX002 (ip), vehicle: saline): 100 % of control
T/C (dose: 100.0 mg/kg/injection, schedule: Q04DX002 (ip), vehicle: saline): 95 % of control
T/C (dose: 200.0 mg/kg/injection, schedule: Q04DX002 (ip), vehicle: saline): 103 % of control

O=[N+]([O-])c1ccc(S(=O)(=O)n2cccc2)cc1
T/C [5]: 98 % of control
T/C [6]: 95 % of control
T/C [7]: 95 % of control
T/C [8]: 98 % of control

Cc1cc(=O)oc2c(CN3CCCCC3)c(O)ccc12
T/C (dose: 5.0 mg/kg/injection, schedule: Q01DX001 (ip), vehicle: carboxymethylcellulose (CMC)): 93 % of control
T/C (dose: 10.0 mg/kg/injection, schedule: Q01DX001 (ip), vehicle: carboxymethylcellulose (CMC)): 90 % of control
T/C (dose: 20.0 mg/kg/injection, schedule: Q01DX001 (ip), vehicle: carboxymethylcellulose (CMC)): 104 % of control

— PubChem BioAssay AID248 (DTP/NCI, 2004)
